Data set [1] addresses T1, CXCR-4 transfected U87 cell line (U87.CXCR4) (Homo sapiens, UniProt P61073).
T1 construct: expressed in transfected cells; host or cells: U87 cell line (U87.CXCR4)
In words: Intracellular CXCL-12-induced calcium mobilization assay (FLIPR). It counts as cell-based. Particulars: U87.CXCR4 cells; CXCL-12 25-50 ng/mL; compounds added 15 minutes before; read-out: IC50 CXCL-12 Ca2+ flux U87.CXCR4+. How it is done: Intracellular calcium mobilization induced by chemokines orchemokine-derived peptides were evaluated using a calcium responsive fluorescent probe and a FLIPR system. The CXCR-4 transfected U87 cell line (U87.CXCR4) cells were seeded in gelatine-coated black-wall 96-well plates at 20,000 cells per well and incubated for 12 hours. Cells were then loaded with the fluorescent calcium probe Fluo-2 acetoxymethyl at 4 μM final concentration in assay buffer (Hanks' balanced salt solution with 20 mM HEPES buffer and 0.2% bovine serum albumin, pH 7.4) for 45 min at 37′C. The intracellular calcium mobilization induced by the CXCL-12 (25-50 ng/mL) was then measured at 37° C. by monitoring the fluorescence as a function of time in all the wells simultaneously using a fluorometric imaging plate reader (FLIPR Tetra, Molecular Devices).
Background: Calcium flux is commonly read through the fluorescence of an indicator in the cells.

The target in data set [2] is T2, Jurkat cells expressing CXCR4 (Homo sapiens, UniProt P61073).
T2 construct: Jurkat cells expressing CXCR4; endogenous in cells; host or cells: Jurkat cells
In words: Chemokine (CXCL12-AF647) binding inhibition assay. The settings on record: CXCL12-AF647 25 ng/mL, read-out: IC50 CXCL-12 binding Jurkat. How it is done:
Jurkat cells expressing CXCR4 were washed once with assay buffer (Hanks' balanced salt solution with 20 mM HEPES buffer and 0.2% bovine serum albumin, pH 7.4) and then incubated for 15 min at room temperature with the test compounds diluted in assay buffer at dose-dependent concentrations. Subsequently, CXCL12-AF647 (25 ng/mL) was added to the compound-incubated cells. The cells were incubated for 30 min at room temperature. Thereafter, the cells were washed twice in assay buffer, fixed in 1% paraformaldehyde in PBS, and analyzed on the FL4 channel of a FACSCalibur flow cytometer equipped with a 635-nm red diode laser (Becton Dickinson, San Jose, Calif., USA).
The percentages of inhibition of CXCL12-AF647 binding were calculated according to the formula: [1−((MFI−MFINC)/(MFIPC−MFINC))]×100 where MFI is the mean fluorescence intensity of the cells incubated with CXCL12-AF647 in the presence of the inhibitor, MFINC is the mean fluorescence intensity measured in the negative control (i.e., autofluorescence of unlabeled cells), and MFIPC is the mean fluorescence intensity of the positive control (i.e., cells exposed to CXCL12-AF647 alone).

The nature of another data set: in vitro. The settings on record: human, Caco-2, pH 7.4. How it is done: The goal of this assay was to evaluate the intestinal absorption potential of drug candidates using Caco-2 cell lines.
Experimental Procedure • 1. Pre-warm Pre-warm HBSS Buffer in 37° C. water bath • 2. Sonicate Take compounds from −20° C., sonicate for a few minutes (no less than 1 minute) • 3. Solution preparation
For A-to-B Direction: • HBSS buffer with 0.3% DMSO and 5 μM LY: add 150 μL DMSO and 50 μL LY (5 mM) into 50 ml HBSS buffer (pH 7.4). • HBSS buffer with 0.1% DMSO and 5 μM LY: add 50 μL DMSO and 50 μL LY (5 mM) into 50 mL HBSS buffer (pH 7.4).
For B-to-A Direction: • HBSS buffer with 0.3% DMSO: add 150 μL DMSO into 50 ml HBSS buffer (pH 7.4). HBSS buffer with 0.1% DMSO: add 50 μL DMSO into 50 ml HBSS buffer (pH 7.4).
For A-to-B Direction: • Prepare HBSS buffer with 0.4% DMSO: add 200 μL DMSO into 50 ml HBSS buffer (pH 7.4).
For B-to-A Direction: • Prepare HBSS buffer with 0.4% DMSO and 5 μM LY: add 200 μL DMSO and 50 μL LY (5 mM) into 50 ml HBSS buffer (pH 7.4).
• 4. Measure TEER Take cell culture plate out of incubator, wash the cell monolayers with HBSS buffer, and then measure TEER values at Rm temperature. • 5. Centrifuge Centrifuge the compound solution (from step 3) at 4000 rpm for 5 min before loading to donor chambers. • 6. Dosing Add solution based on the volumes listed in the following table (make sure to take extra 100 μL of donor sample for T0 as Backup).
• 7. Apical LYTO samples To determine LY concentration in the apical chamber, take 100 μL sample from apical chambers into an opaque plate for LYTO. • 8. Pre-warm Pre-warm apical and basolateral plates at 37° C. for about 5 min, then begin transport by placing the apical plate onto basolateral plate. • 9. Incubation Keep the plates in incubator at 37° C. for 90 min. • 10.
• Prepare 1× solution: • 3 μL (20×)+57 μL of 0.4% DMSO HBSS+60 μL ACN with IS (Osalmid or Imipramine)—120 μL (1×) • 11. Transport termination Separate the apical plate from the basolateral plate after 90-min incubation. • 12. Measure LY Take 100 μL samples from basolateral plate to an opaque plate as LYT90. • 13. Measure LY concentrations for LYTO and LYT90 by Fluorometer (at excitation of 485 nm/emission of 535 nm). • 14.
Drug permeability: Papp=(VA/(Area×time))×([drug]accepter/(([drug]initial, donor)×Dilution Factor) • Where VA is the volume in the acceptor well, area is the surface area of the membrane and time is the total transport time in seconds.
For Millicell-24 Cell Culture Plates: surface area of the membrane=0.7 cm^2, VA=0.8 mL (A-to-B) or 0.4 mL (B-to-A)

This note sets out measurements from patent publication US20210009557A1, “ACYCLIC CXCR4 INHIBITORS AND USES THEREOF” (X4 Pharmaceuticals, Inc., priority 2017, published 2021).

In general, IC50 refers to the concentration that gives 50% inhibition. The term Papp A→B denotes the apparent permeability from the apical to the basolateral side of a cell layer. By Papp B→A is commonly meant how fast a substance crosses the layer from the basolateral side. What is called efflux ratio is the permeability from basolateral to apical divided by that in the opposite direction, in the common usage.

Where only a bound is given, the exact number is not on record here.

T1 sequence (P61073 whole entry): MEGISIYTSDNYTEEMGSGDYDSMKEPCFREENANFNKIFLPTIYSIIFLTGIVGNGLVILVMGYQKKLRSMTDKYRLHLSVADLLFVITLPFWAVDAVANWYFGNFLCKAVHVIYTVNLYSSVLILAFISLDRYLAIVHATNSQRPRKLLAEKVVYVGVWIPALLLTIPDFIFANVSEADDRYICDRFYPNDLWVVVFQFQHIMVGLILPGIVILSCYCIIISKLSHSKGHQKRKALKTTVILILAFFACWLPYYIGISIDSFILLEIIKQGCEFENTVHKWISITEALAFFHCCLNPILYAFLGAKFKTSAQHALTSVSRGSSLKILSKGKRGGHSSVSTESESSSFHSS
T2 sequence (P61073 whole entry): as above

On to `COc1ccc(CCN(Cc2ncccc2C)Cc2ncccc2C)nc1` [Compound I-32], for which, in data set [1], the IC50 is at least 1000 nM. For the same compound, the IC50 in data set [2] is 0.01 to 100 nM. In addition, in “in vitro”, the Papp A→B at 90 min, 10 μM was above 10 ×10⁻⁶ cm/s; the Papp B→A at 90 min, 10 μM was above 10 ×10⁻⁶ cm/s; the efflux ratio at 90 min, 10 μM is 0.1 to 10.
For `Cc1cccnc1CN(CCc1cnc[nH]1)Cc1ncccc1C(C)C` [Compound I-34], the IC50 in data set [1] lay in the range of 100 to 1000 nM. Besides, the IC50 in data set [2] fell in the range of 0.01 to 100 nM. In “in vitro”, the Papp A→B at 90 min, 10 μM was 5 to 10 ×10⁻⁶ cm/s; the Papp B→A at 90 min, 10 μM was above 10 ×10⁻⁶ cm/s; the efflux ratio at 90 min, 10 μM was 0.1 to 10.
The corresponding values for `Cc1cccnc1CN(CCC(N)=O)C(C)c1ccccn1` (stereo not shown) [Compound I-13] are at least 1000 nM, 0.01 to 100 nM, above 10 ×10⁻⁶ cm/s, above 10 ×10⁻⁶ cm/s and 0.1 to 10.
The corresponding values for `NC(=O)CCN(Cc1nc2ccccc2[nH]1)[C@H]1CCCc2cccnc21` [Compound I-21, (S)-3-(((1H-benzo[d]imidazol-2-yl)methyl)(5,6,7,8-tetrahydroquinolin-8-yl)amino)propanamide] are 100 to 1000 nM, 0.01 to 100 nM, below 5 ×10⁻⁶ cm/s, above 10 ×10⁻⁶ cm/s and above 30.
On to `Clc1cccnc1CN(CCc1cnc[nH]1)Cc1nccs1` [Compound I-53], for which the IC50 in data set [1] was at least 1000 nM. For the same compound, the IC50 in data set [2] lay in the range of 100 to 1000 nM. Also, in the data set “in vitro”, the Papp A→B at 90 min, 10 μM is above 10 ×10⁻⁶ cm/s; the Papp B→A at 90 min, 10 μM is above 10 ×10⁻⁶ cm/s; the efflux ratio at 90 min, 10 μM lay in the range of 0.1 to 10.
With `Cc1cccnc1CN(CCc1c[nH]cn1)[C@H]1CCCc2cccnc21` [Compound I-26], the IC50 in data set [1] is at least 1000 nM. Moreover, in data set [2], the IC50 lay in the range of 0.01 to 100 nM. Further, in the data set “in vitro”, the Papp A→B at 90 min, 10 μM was below 5 ×10⁻⁶ cm/s; the Papp B→A at 90 min, 10 μM was above 10 ×10⁻⁶ cm/s; the efflux ratio at 90 min, 10 μM fell in the range of 10 to 30.
For `Cc1cccnc1CN(CCc1cnc[nH]1)C(C)c1ccccn1` (stereo not shown) [Compound I-8], in that order: at least 1000 nM, 0.01 to 100 nM, below 5 ×10⁻⁶ cm/s, above 10 ×10⁻⁶ cm/s and 10 to 30.
For `Cc1cccnc1CN(CCc1ccccn1)C(C)c1ccccn1` (stereo not shown) [Compound I-3], in that order: 100 to 1000 nM, 0.01 to 100 nM, above 10 ×10⁻⁶ cm/s, above 10 ×10⁻⁶ cm/s and 0.1 to 10.
Take `c1cnc2c(c1)CCC[C@@H]2N(CCC1CCCO1)Cc1nc2ccccc2[nH]1` (stereo partly shown) [Compound I-17]: the results for the IC50 in data set [1] and in data set [2] were at least 1000 nM and 0.01 to 100 nM, respectively.
Consider `Cc1cccnc1CN(CCC(N)=O)Cc1ncccc1-c1ccccc1` [Compound I-46], for which the half-maximal inhibitory concentration (IC50) in data set [1] is at least 1000 nM. For the same compound, in data set [2], the IC50 was 0.01 to 100 nM. In the data set “in vitro”, the Papp A→B at 90 min, 10 μM is above 10 ×10⁻⁶ cm/s; the Papp B→A at 90 min, 10 μM is above 10 ×10⁻⁶ cm/s; the efflux ratio at 90 min, 10 μM lay in the range of 0.1 to 10.
In the case of `NC(=O)CCN(Cc1nccc2ccccc12)[C@H]1CCCc2cccnc21` [Compound I-49], in data set [1], the IC50 was in the range of 100 to 1000 nM. Further, the IC50 in data set [2] fell in the range of 0.01 to 100 nM. For the same compound, in “in vitro”, the Papp A→B at 90 min, 10 μM fell in the range of 5 to 10 ×10⁻⁶ cm/s; the Papp B→A at 90 min, 10 μM was above 10 ×10⁻⁶ cm/s; the efflux ratio at 90 min, 10 μM was 0.1 to 10.
The corresponding values for `Cc1cccnc1CN(CCc1c[nH]cn1)Cc1nc2c(F)cccc2n1C` [Compound I-43, N-((4-fluoro-1-methyl-1H-benzo[d]imidazol-2-yl)methyl)-2-(1H-imidazol-4-yl)-N-((3-methylpyridin-2-yl)methyl)ethan-1-amine] are 0.01 to 100 nM, 0.01 to 100 nM, 5 to 10 ×10⁻⁶ cm/s, above 10 ×10⁻⁶ cm/s and 0.1 to 10.
For `c1ccc2c(CN(CCc3c[nH]cn3)Cc3nccs3)nccc2c1` [Compound I-54], in that order: at least 1000 nM, 100 to 1000 nM, 5 to 10 ×10⁻⁶ cm/s, above 10 ×10⁻⁶ cm/s and 0.1 to 10.
For `OCCCN(Cc1nc2ccccc2[nH]1)[C@H]1CCCc2cccnc21` [Compound I-19], in that order: 100 to 1000 nM, 0.01 to 100 nM, above 10 ×10⁻⁶ cm/s, above 10 ×10⁻⁶ cm/s and 0.1 to 10.
`COc1cccnc1CCN(Cc1ncccc1C)Cc1ncccc1C` [Compound I-56]: the IC50 in data set [1] was at least 1000 nM. The IC50 in data set [2] lay in the range of 0.01 to 100 nM. Also, in “in vitro”, the Papp A→B at 90 min, 10 μM fell in the range of 5 to 10 ×10⁻⁶ cm/s; the Papp B→A at 90 min, 10 μM is above 10 ×10⁻⁶ cm/s; the efflux ratio at 90 min, 10 μM lay within 0.1 to 10.
The corresponding values for `Cc1cccnc1CN(CCc1ccccn1)Cc1ncccc1Cl` [Compound I-5] are 100 to 1000 nM, 0.01 to 100 nM, above 10 ×10⁻⁶ cm/s, above 10 ×10⁻⁶ cm/s and 0.1 to 10.
Regarding `COCCc1ccc(OCC(O)CNC(C)C)cc1` (stereo not shown) [Metoprolol, reference compound], in the data set “in vitro”, the Papp A→B at 90 min, 10 μM was above 10 ×10⁻⁶ cm/s and the Papp B→A at 90 min, 10 μM is above 10 ×10⁻⁶ cm/s.
`CC(=O)NCCCN(Cc1ncccc1C)[C@H]1CCCc2cccnc21` [Compound I-29]: the IC50 in data set [1] is at least 1000 nM; in data set [2], 0.01 to 100 nM.
For `COCCCN(Cc1nc2ccccc2[nH]1)[C@H]1CCCc2cccnc21` [Compound I-18], in that order: 100 to 1000 nM and 0.01 to 100 nM.
Turning to `CC(c1ccccn1)N(CCc1ccccn1)Cc1ccccn1` (stereo not shown) [Compound I-1, 2-(Pyridin-2-yl)-N-(1-(pyridin-2-yl)ethyl)-N-(pyridin-2-ylmethyl)ethan-1-amine], the values for the IC50 in data set [1] and in data set [2] were at least 1000 nM and 0.01 to 100 nM, respectively.
For the compound `CC(=O)NCCN(Cc1ncccc1C)[C@H]1CCCc2cccnc21` [Compound I-30], the IC50 lay in the range of 100 to 1000 nM in data set [1] and 0.01 to 100 nM in data set [2].
As to `CC[C@H]1OC(=O)[C@H](C)[C@@H](O[C@H]2C[C@@](C)(OC)[C@@H](O)[C@H](C)O2)[C@H](C)[C@@H](O[C@@H]2O[C@H](C)C[C@H](N(C)C)[C@H]2O)[C@](C)(O)C[C@@H](C)C(=O)[C@H](C)[C@@H](O)[C@]1(C)O` [Erythromycin, reference compound], in “in vitro”, the efflux ratio at 90 min, 10 μM was above 116.
